From ChEMBL document CHEMBL4888484, “Replenishing the malaria drug discovery pipeline: Screening and hit evaluation of the MMV Hit Generation Library 1 (HGL1) against asexual blood stage Plasmodium falciparum ,using a nano luciferase reporter read-out” (2022) come the findings set out here.

Series [1] deals with Plasmodium falciparum. Nature of the series: Hit confirmation in dose-response curve in NF54 pLDH assay, at 72h. Type of series: functional, organism-based. Also on record: timepoint 72 hour. Conditions: NF54, Erythrocyte.
Series [2] has as its system Plasmodium falciparum. Nature of the series: Hit confirmation in dose-response curve in Dd2 pLDH assay, at 72h. As to conditions: Dd2, Erythrocyte. The class given is functional, organism-based. Also on record: timepoint 72 hour.
A short description of series [3]: Hit confirmation in dose-response curve in HepG2 cytotoxicity assay, at 72h. Conditions: human, HepG2 cells. Type of series: toxicity, cell-based. Also on record: timepoint 72 hour.
Series [4] has as its system Plasmodium falciparum. As to the kind of experiment: Hit confirmation in dose-response curve in NF54 nanoGlo assay, at 72h. Type of series: functional, organism-based, Erythrocyte. Details: timepoint 72 hour. Conditions: Plasmodium falciparum, NF54, Erythrocyte, 72 h.
The test system of series [5] is Plasmodium falciparum. As to the kind of experiment: Hit confirmation in dose-response curve in NF54 nanoGlo assay, at 12h. Conditions: Plasmodium falciparum, NF54, Erythrocyte, 12 h. Also on record: timepoint 12 hour. Type of series: functional, organism-based, Erythrocyte.

SMILES strings stand for the structures.

As usually defined, the IC50 is the concentration that inhibits the measured activity by half. Low values mean inhibition by little substance, high ones a need for much substance.

For the molecule `c1ccc(CCNc2nc(-c3ccccn3)cs2)cc1`, the IC50 in series [1] was 3.24 µM; in series [2] it was 3.63 µM; in series [4], 2.45 µM; in series [5], over 10 µM. The same molecule displayed a concentration for half-maximal inhibition (IC50) at 72 h in series [3] of over 10 µM.
Turning to `CCOc1cc(C(c2c(C)n(C)n(-c3ccccc3)c2=O)c2c(C)n(C)n(-c3ccccc3)c2=O)ccc1OCc1ccccc1`, the 50% inhibitory concentration (IC50) in series [1] stood at 6.92 µM; in series [2], 4.68 µM; in series [4], 1.86 µM; in series [5], 3.09 µM. This molecule also gave an IC50 at 72 h in series [3] of over 10 µM.
As to `COc1ccc2c(/C=C/c3cc[n+](C)cc3)cn(Cc3ccccc3)c2c1`, the IC50 is 1.58 µM in series [1], 1.26 µM in series [2], 1.17 µM in series [4] and over 10 µM in series [5]. The same molecule yielded an IC50 at 72 h in series [3] of over 10 µM.
On to `CC(C)C(=O)Nc1ccc(-c2cc(-c3ccc(NC(=O)C(C)C)cc3)nc(-c3ccncc3)n2)cc1`, for which the IC50 in series [1] was 8.71 µM; in series [2], over 10 µM; in series [4] it was 4.68 µM; in series [5], over 10 µM. In series [3], the 50% inhibitory concentration (IC50) at 72 h is over 10 µM.
As for `CCC(C)NCC(O)Cn1c(-c2ccccc2)c(-c2ccccc2)c2cc(C)ccc21` (stereo not given), the IC50 in series [1] worked out at 2.57 µM; in series [2], 2.75 µM; in series [4] it was 1.02 µM; in series [5] it was 1.51 µM. The IC50 at 72 h in series [3] is over 10 µM.
In the case of `COc1cc(CNCCCN2CCOCC2)ccc1OCc1ccc(Cl)cc1`, the IC50 amounted to 4.47 µM in series [1], 2.95 µM in series [2], 2.88 µM in series [4] and 6.03 µM in series [5]. In series [3], the IC50 at 72 h is over 10 µM.
As for `Cn1nccc1/C=C1\CC2C3CCc4cc(O)ccc4C3CCC2(C)C1O` (stereo not given), the IC50 in series [1], in series [2], in series [4] and in series [5] was over 10 µM in each case. This molecule also came in with an IC50 at 72 h in series [3] of over 10 µM.
Turning to `O=C(c1cccc(C(=O)N2CCN(C(c3ccccc3)c3ccccc3)CC2)c1)N1CCN(C(c2ccccc2)c2ccccc2)CC1`, the IC50 in series [1], in series [2], in series [4] and in series [5] was over 10 µM each time. The molecule also came in with a half-inhibitory concentration (IC50) at 72 h in series [3] of over 10 µM.
Regarding `Brc1cccc(-c2ccc(-c3cc(-c4ccccc4)nnc3-c3ccccc3)o2)c1`, the IC50 in series [1] was over 10 µM; in series [2], over 10 µM; in series [4] it was 6.61 µM; in series [5], 2 µM. For the same molecule, the concentration for half-maximal inhibition (IC50) at 72 h in series [3] was over 10 µM.
`c1cc(-c2nc3cc4ccccc4cc3[nH]2)nc(-c2nc3cc4ccccc4cc3[nH]2)c1`: the IC50 in series [1] turned out to be 1.15 µM; in series [2] it was 1.95 µM; in series [4], 0.513 µM; in series [5], 0.977 µM. The molecule also showed an IC50 at 72 h in series [3] of 8.32 µM.
As for `COCCCn1c(NS(=O)(=O)c2ccccc2)c(S(=O)(=O)c2ccc(C)cc2)c2nc3ccccc3nc21`, the IC50 in series [1] is over 10 µM; in series [2], 8.91 µM; in series [4] it was 4.68 µM; in series [5] it was 6.17 µM. The molecule also came in with an IC50 at 72 h in series [3] of over 10 µM.
`CC(C)CC[C@@H](CCNC1CCN(C)CC1)c1ccc(Cl)cc1`: the IC50 in series [1] worked out at 2.4 µM; in series [2], 2.19 µM; in series [4], 1.66 µM; in series [5] it was 2.82 µM. Besides, in series [3], the IC50 at 72 h was over 10 µM.
Consider `CCCCCn1c(NCc2cc(Cl)ccc2O)nc2ccccc21`, for which the IC50 in series [1] was 8.71 µM; in series [2], 7.41 µM; in series [4], 3.63 µM; in series [5], 6.76 µM. The IC50 at 72 h in series [3] is over 10 µM.
The like results for `CN1CCC(NCC[C@@H](Cc2ccccc2Cl)c2ccc(Cl)cc2)CC1` were, in that order, 2.57 µM, 2.24 µM, 1.51 µM, 2.45 µM and over 10 µM.
For `O=C(CCn1c(=O)[nH]c2ccsc2c1=O)NCc1ccccc1`, the IC50 in series [1] was over 10 µM; in series [2], over 10 µM; in series [4], 9.12 µM; in series [5], over 10 µM. The same molecule came in with an IC50 at 72 h in series [3] of over 10 µM.
With `CC1=CC(=[N+](CCO)CCO)C=C/C1=C(\c1ccc(N(CCO)CCO)cc1C)c1ccccc1Cl`, the IC50 in series [1] is 0.166 µM; in series [2], 0.0871 µM; in series [4], 0.0871 µM; in series [5], 7.41 µM. Moreover, the IC50 at 72 h in series [3] is over 10 µM.
As for `COc1cc2ncc3c(-c4ccc(C)c(C)c4)n[nH]c3c2cc1OC`, the IC50 is over 10 µM in series [1], 5.25 µM in series [2], 4.27 µM in series [4] and 7.59 µM in series [5]. The molecule also gave an IC50 at 72 h in series [3] of over 10 µM.
As to `CCC1=Nc2ccccc2N=C(NC(=O)C(C)C)[C@H]1c1ccc(F)cc1`, the IC50 came out at 7.24 µM in series [1], 8.32 µM in series [2], 2.45 µM in series [4] and 3.8 µM in series [5]. This molecule registered an IC50 at 72 h in series [3] of over 10 µM.
In the same order, the values of `COc1ccc(C(=O)CN2C=CCC=C2c2nc(-c3ccc(Cl)cc3)cs2)cc1` are 5.13 µM, 3.02 µM, 2.14 µM, over 10 µM and over 10 µM.
For the molecule `C[N+]1(CCCC(=O)c2ccc3c(c2)OCCO3)CCC(c2ccccc2)C1` (stereo not given), the IC50 is 3.8 µM in series [1], 2.24 µM in series [2], 2.57 µM in series [4] and over 10 µM in series [5]. The IC50 at 72 h in series [3] was over 10 µM.
Turning to `Cc1ccc(N2C(=O)C[C@]3(CC3(c3ccccc3)c3ccccc3)C2=O)cc1`, the IC50 was over 10 µM in series [1], over 10 µM in series [2], 1.51 µM in series [4] and 0.525 µM in series [5]. This molecule gave an IC50 at 72 h in series [3] of over 10 µM.
Take `CN(C(=O)C(C)(C)Nc1ncc(C(F)(F)F)cc1Cl)c1ccc(Cl)cc1`: the IC50 is over 10 µM in series [1], over 10 µM in series [2], 3.55 µM in series [4] and 1.55 µM in series [5]. This molecule came in with an IC50 at 72 h in series [3] of over 10 µM.
For `O=C(NC1=NN2C(=NC(c3ccc(Cl)cc3)=C[C@H]2c2ccc(F)cc2)N1)c1ccc(Cl)cc1`, the IC50 in series [1] is 2.95 µM; in series [2] it was 3.16 µM; in series [4], 2.29 µM; in series [5], 4.17 µM. This molecule also had a half-inhibitory concentration (IC50) at 72 h in series [3] of over 10 µM.
With `COc1ccc(-c2cc(C(F)(F)F)nc(-n3nc(-c4cccc(OC)c4)c(Cl)c3-c3cccc(OC)c3)n2)cc1`, the 50% inhibitory concentration (IC50) is over 10 µM in series [1], 4.07 µM in series [2], 1.51 µM in series [4] and 1.74 µM in series [5]. The IC50 at 72 h in series [3] was over 10 µM.
As for `COc1cccc(-c2nc(C)c(C(=O)Nc3nc(C(C)C)n[nH]3)s2)c1`, the IC50 is over 10 µM in series [1], over 10 µM in series [2], 1.48 µM in series [4] and 0.575 µM in series [5]. This molecule also displayed an IC50 at 72 h in series [3] of over 10 µM.
`CCc1c2c(=O)n(-c3nc4ccccc4s3)[nH]c2cc(=O)n1CCCN1CCOCC1`: the 50% inhibitory concentration (IC50) was 9.55 µM in series [1], over 10 µM in series [2], 4.57 µM in series [4] and 6.61 µM in series [5]. This molecule also displayed an IC50 at 72 h in series [3] of over 10 µM.
As to `Cc1ccc(S(=O)(=O)Nc2cc3nc4ccccc4nc3n2CCc2ccccc2)cc1`, the IC50 in series [1] was 10 µM; in series [2] it was over 10 µM; in series [4], 2.34 µM; in series [5], 3.24 µM. The IC50 at 72 h in series [3] was over 10 µM.
In the case of `O=C(CN1C=CCC=C1c1nc(-c2ccc(Br)cc2)cs1)c1ccccc1`, the IC50 in series [1] turned out to be 3.47 µM; in series [2] it was 3.55 µM; in series [4], 2.63 µM; in series [5], 5.89 µM. The IC50 at 72 h in series [3] was over 10 µM.
Regarding `Cc1c(C)n(CC(O)CNC(C)c2ccccc2)c2c(Cl)cccc12` (stereo not given), the IC50 in series [1] stood at 9.77 µM; in series [2] it was 8.51 µM; in series [4], 2 µM; in series [5], 3.16 µM. This molecule came in with a half-inhibitory concentration (IC50) at 72 h in series [3] of 10 µM.
Regarding `COCCCn1c(NS(=O)(=O)c2ccc3ccccc3c2)c(S(=O)(=O)c2ccc(C)cc2)c2nc3ccccc3nc21`, the IC50 in series [1] turned out to be 6.76 µM; in series [2], 8.51 µM; in series [4], 2.34 µM; in series [5] it was 1.55 µM. The molecule also yielded an IC50 at 72 h in series [3] of over 10 µM.
`CCCC[C@H](Oc1ccc(C(C)(C)CC)cc1C(C)(C)CC)C(=O)Nc1ccc(NC(=O)C(F)(F)C(F)(F)C(F)(F)F)c(O)c1`: the IC50 was over 10 µM in series [1], 3.72 µM in series [2], 2.95 µM in series [4] and 7.24 µM in series [5]. Also, in series [3], the IC50 at 72 h is over 10 µM.
In the case of `CC(NCC(O)Cn1c(-c2ccccc2)c(-c2ccccc2)c2ccc3ccccc3c21)c1ccccc1` (stereo not given), the IC50 in series [1] worked out at 9.12 µM; in series [2], 7.94 µM; in series [4], 1.62 µM; in series [5], 1.95 µM. In series [3], this molecule had an IC50 at 72 h of over 10 µM.
As for `CC(C)(C)[C@H]1CCc2c(sc(NC(=O)C3(F)C(F)(F)C(F)(F)C(F)(F)C(F)(F)C3(F)F)c2C#N)C1`, the 50% inhibitory concentration (IC50) in series [1] came out at 2.95 µM; in series [2] it was 2.57 µM; in series [4] it was 2.19 µM; in series [5] it was 5.75 µM. The molecule also showed an IC50 at 72 h in series [3] of 4.57 µM.
Turning to `CNCCc1c(-c2ccccc2)[nH]n(-c2ccccc2)c1=O`, the IC50 in series [1] was 2.82 µM; in series [2], 3.16 µM; in series [4], 1.7 µM; in series [5] it was 2.75 µM. The molecule also displayed an IC50 at 72 h in series [3] of over 10 µM.
Regarding `COc1ccc(-c2c(C(F)(F)F)n[nH]c2-c2ccc(OCc3ccccc3F)cc2O)cc1`, the IC50 in series [1] turned out to be 6.31 µM; in series [2], 3.02 µM; in series [4] it was 1.66 µM; in series [5], 2.88 µM. The molecule further came in with an IC50 at 72 h in series [3] of over 10 µM.
For `O=C(COc1ccccc1)Nc1ccc2c(c1)C(O)=Nc1cccnc1O2`, the IC50 is 2.45 µM in series [1], 2.82 µM in series [2], 1.74 µM in series [4] and over 10 µM in series [5]. The same molecule gave an IC50 at 72 h in series [3] of over 10 µM.
